Data on 89 compounds can be found in a melting point compilation (Tetko et al.; mined from patent text by program, amines drawn as free bases though some values may be those of a salt).

Usually melting point stands for the temperature, or range, at which the solid turns liquid. As for `CCNC(=O)c1c([Si](C)(C)C)ccc(C#C[Si](C)(C)C)c1Cl`, the melting point lay in the range of 131 to 132 °C.

In the case of `CN1CC(Cn2ccnc2-c2ccccc2)CC2c3cccc4[nH]cc(c34)CC21` (centres undefined), the melting point was in the range of 193 to 195 °C.

For `CC(C)(C)OC(=O)N[C@@H](Cc1cscn1)C(=O)O`, the melting point is 115 °C.

`CC(=O)Nc1ccc(C(=O)CBr)cc1` came in with a melting point of 192 °C.

The compound `COC(=O)c1c(Cl)cc(Cl)cc1NC(=O)CSc1ccccc1Cl` came in with a melting point of 98 to 99 °C.

For `COc1cc(N)c([N+](=O)[O-])cc1C(=O)O`, the melting point is 254 °C.

For the compound `Cc1cc2nc(S(=O)(=O)CC(F)(F)F)[nH]c2cc1F`, the melting point was 164 to 166 °C.

`COC(=O)CN1CCC[C@H]1C(=O)N[C@@H](Cc1ccccc1)C(=O)N1CCC[C@H]1C(=O)O` came in with a melting point of 145 to 148 °C.

For the compound `CCOc1ccc(C(=O)CN2CCOCC2)cc1-c1nc2c(C)cccc2c(=O)[nH]1`, the melting point fell in the range of 172 to 173 °C.

Regarding `NS(=O)(=O)c1cccc(-c2cc(-c3nc(-c4ccc(C(F)(F)F)c(OCC(F)(F)F)c4)cc(C(F)(F)F)n3)ccn2)c1`, the melting point is 211 °C.

For `CCOCc1nc2c(N)nc3cccnc3c2n1Cc1cc(-c2ccc(F)cc2)no1`, the melting point is 190 to 191 °C.

For the compound `COc1cc(CC(C#N)C(OC)OC)cc(OC)c1Cl` (centres undefined), the melting point stood at 84 °C.

Compound `CN1CCN(Cc2cc(C(=O)c3ccc(Cl)cc3)cc(C(C)(C)C)c2O)CC1` yielded a melting point of 131 to 132 °C.

`CCOc1ccc(CCCOc2c(CC(=O)O)cccc2OC)c(Oc2ccc(Cl)cc2Cl)n1` showed a melting point of 89 to 91 °C.

`CCN1C(=O)C(C)(C)C(=O)N(C)c2cc(CN(CCn3c(=O)ccc4ccccc43)Cc3cccnc3C)ccc21`: the melting point was 149 to 150 °C.

`Cc1noc(-c2cccc(CN3CCN(c4ccc(N)cc4)CC3)c2)n1` had a melting point of 106 to 108 °C.

For the compound `CN(C)n1nnc2cc3c(cc2c1=O)OC1CCCN1C3=O` (centres undefined), the melting point turned out to be 180 °C.

As to `O=C(O)CC/C=C/c1nn(-c2ccccc2)c2c1CCC2`, the melting point is 122 to 125 °C.

`Cc1ccc2c(=O)[nH]c(N3CCN(CCO)CC3)cc2c1`: the melting point is 236 to 237 °C.

`OCc1cccc2c(Cl)c3ccccc3cc12` returned a melting point of 138 to 140 °C.

The compound `Clc1ccc(C2=CCCC2)cc1` showed a melting point of 71 to 73 °C.

`Cc1ccccc1CNCCNCc1ccccc1C` had a melting point of 51 to 52 °C.

For the compound `CCN(CC)c1ccc(/C=C/C(=O)CC(=O)/C=C/c2ccc(O)c(OC)c2)c(O)c1`, the melting point fell in the range of 89 to 92 °C.

As for `COCCCCCCCCCCCCCCSCCCO`, the melting point was 35 to 37 °C.

In turn, `COc1ccc(Nc2nnc(Cc3ccncc3)c3ccccc23)cc1` showed a melting point of 223 to 224 °C.

`CNc1cc(N2CCN(C(=O)C3CCN(S(=O)(=O)c4ccc(C(F)(F)F)cc4)CC3)CC2)ncn1` yielded a melting point of 237 to 238 °C.

On to `FC(F)(F)c1cc(Cl)c(-c2nc(Br)c[nH]2)c(Cl)c1`, for which the melting point lay within 224 to 225 °C.

`CC(=O)OC1CSC(Oc2ccc(-c3ccc(CO)cc3)nc2)C(OC(C)=O)C1OC(C)=O` (centres undefined) displayed a melting point of 157 °C.

As for `NS(=O)(=O)c1ccc(-n2nc(CNC(=O)NO)cc2-c2ccc(Cl)cc2)cc1`, the melting point was 216 to 218 °C.

`COC(=O)C(O)CC1CCC(=O)N1` (centres undefined) registered a melting point of 87 to 90 °C.

As for `CSc1sc(C(=O)O)c2c1-c1sc(-c3ccccc3)cc1CC2`, the melting point lay within 215 to 217 °C.

As for `CC(=O)NCC1CN(c2cc(F)c(N3CCN(C(=O)OC(C)(C)C)CC3)c(F)c2)C(=O)O1` (centres undefined), the melting point is 177 to 179 °C.

The compound `CN(C)CCCn1c(-c2ccccc2)cc2c1CCS(=O)(=O)C2` showed a melting point of 123 to 125 °C.

In the case of `O=C(Cc1cc(OC(=O)c2ccccc2)no1)OC(c1ccccc1)c1ccccc1`, the melting point lay in the range of 95 to 96 °C.

As for `O=C(Nc1ccc(Cl)cn1)c1cc(Cl)ccc1NCC1CCN(C2CCCCCC2)CC1`, the melting point fell in the range of 170 to 172 °C.

`CC(C)(C)OC(=O)N1CCCN(c2ccc(C(C)(C)C)cc2)CC1` had a melting point of 62 to 64 °C.

`COc1ccccc1NCCN1CCC(C(=O)c2ccc(F)cc2)CC1` showed a melting point of 116 to 120 °C.

`CCOC(=O)Cc1csc(Sc2ccc(OCc3nc(-c4ccccc4)oc3C)cc2)n1`: the melting point lay within 95 to 96 °C.

In the case of `CCCc1cccnc1N(C)C1CCN(C(=O)c2ccc[nH]2)CC1`, the melting point fell in the range of 88 to 90 °C.

As for `N#Cc1ncn2c1nc(N1CCOCC1)c1ccccc12`, the melting point was in the range of 225 to 228 °C.

With `CC1(C)CC(=O)C(=C(O)COc2ccc(Cl)cc2Cl)C(=O)C1`, the melting point lay within 170 to 175 °C.

Compound `CN(C)c1cccc2c(S(=O)(=O)NCC(=O)N3CCCC3C(=O)NC(C=O)CCCN(C(=N)N)C(=O)OCc3ccccc3)cccc12` (centres undefined) showed a melting point of 105 to 115 °C.

`CCCC1=C([N+](=O)[O-])C(c2ccccc2[N+](=O)[O-])c2c[nH]nc2N1` (centres undefined): the melting point was determined as 204 °C.

In the case of `CC1Oc2ccccc2-n2cnc(-c3noc(C4CC4)n3)c21` (centres undefined), the melting point turned out to be 162 °C.

For `Cn1c(N)c(CN2CCN(c3cccc4c3OCCO4)CC2)c(=O)n1-c1ccccc1`, the melting point was 222 to 224 °C.

In turn, `Cc1nnc2n1-c1sc(Cl)cc1C(c1ccccc1Cl)=NC2` had a melting point of 205 to 206 °C.

Compound `CCOC(=O)c1cn(C2CC2)c2nc(SCC)ncc2c1=O` displayed a melting point of 138 °C.

For `CC1(C)CON(Cc2ccc(N)cc2Br)C1=O`, the melting point lay within 109 to 111 °C.

`COc1ccc(C(=O)NC(=S)Nc2ccccc2C(N)=O)cc1` showed a melting point of 193 to 196 °C.

The compound `CCCCCCCCCCCCCCCCCC(c1ccc(O)cc1)c1ccc(O)cc1` returned a melting point of 88 to 90 °C.

Compound `O=C1CCNc2c1cc(Cl)cc2[N+](=O)[O-]` displayed a melting point of 132 to 135 °C.

Take `C[C@]1(CN2CCC(OCc3ccc(Cl)c(Cl)c3)CC2)Cn2cc([N+](=O)[O-])nc2O1`: the melting point lay in the range of 132 to 136 °C.

For `COC1(c2ccc(C)cc2)CCC(=O)CC1`, the melting point was 76 to 76.5 °C.

`O=C(/C=C/c1ccn(S(=O)(=O)c2ccc3ccccc3c2)c1)NO` had a melting point of 153 °C.

For `COc1cc(CCCCCC2OC(=O)NC2=O)ccc1OCc1nc(-c2ccccc2)oc1C` (centres undefined), the melting point fell in the range of 114 to 115 °C.

Regarding `NC(=O)c1nc(-c2cccc(O)c2)nc2c1[nH]c(=O)n2-c1cccc2c1CCCC2`, the melting point was > 250 °C.

In the case of `CC(C)(C)c1cc(CC2SCNC2=O)ccc1O` (centres undefined), the melting point lay within 65 to 70 °C.

`CCOC(=O)Cc1c(C)[nH]c(C(=O)c2ccccc2)c1C` registered a melting point of 126 to 129 °C.

`O=C(O)COc1ccc2c(-c3cc([N+](=O)[O-])ccc3F)noc2c1Cl` had a melting point of 238 to 240 °C.

On to `c1ccc(OCCN2CCC(CNc3nc4ccccc4s3)CC2)cc1`, for which the melting point was 116 °C.

`CC(C)C(=O)N1CCN(c2ccc(NC(=O)c3ccccn3)cc2Cl)CC1` gave a melting point of 156 to 158 °C.

Turning to `CNS(=O)(=O)N1C[C@H](SC(c2ccccc2)(c2ccccc2)c2ccccc2)C[C@H]1COCc1ccccc1`, the melting point is 140 to 142 °C.

With `Nc1n[nH]c2c1CCC2`, the melting point was 116 to 120 °C.

As to `CCNC(=O)C(C)(C)c1ccc(C(=O)Nc2cn3cc(Cl)ccc3n2)cc1`, the melting point was in the range of 228 to 230 °C.

`CCOc1cc(C(=O)c2ccccn2)ccc1OCCOc1c(CC(=O)O)cccc1OC` registered a melting point of 184 to 186 °C.

`O=C1CCC2=C1C(c1ccc([N+](=O)[O-])s1)C1=C(CCS1)N2` (centres undefined) yielded a melting point of 251 to 254 °C.

The compound `CCOC(=O)CC(NC(=O)c1ccc(C)cc1)C(=O)c1ccco1` (centres undefined) registered a melting point of 83.5 to 84.5 °C.

The compound `O=C(Nc1cc(F)cc(F)c1)Oc1ccccc1` came in with a melting point of 123 to 125 °C.

In turn, `CCCCc1nc(Cl)c(CC(=O)OCC)c(Cc2ccc(-c3ccccc3C#N)cc2)n1` displayed a melting point of 66 °C.

`COc1ccc(CN2C(=O)C(C)(c3ccccc3Cl)c3cc(OC)ccc32)c(OC)c1` (centres undefined): the melting point was found to be 133 °C.

Compound `Cc1nn(-c2cc(OC(C)C(=O)NS(=O)(=O)c3cccc4c3OC(C)(C)C4)c(Cl)cc2F)c(=O)n1C(F)F` (centres undefined) gave a melting point of 198 to 201 °C.

The compound `CC(=O)Nc1c(C(=O)c2cc(F)cc(F)c2)[nH]c2cc(Cl)ccc12` displayed a melting point of 232 to 233 °C.

Take `CCCCOC(=O)C=Cc1c(-c2ccccc2)nn2ccccc12`: the melting point was in the range of 80 to 82 °C.

With `CC1(C)COC(CCCc2ccc(NC=NO)cc2)OC1`, the melting point lay in the range of 138 to 140 °C.

For the compound `COc1ccc(Cl)cc1C(=O)NCCC1CCN(S(=O)(=O)NC(=S)NC(C)C)CC1`, the melting point was 145 to 147 °C.

Turning to `CC(O)(CCBr)c1ccc(-c2cccc(F)c2)cc1` (centres undefined), the melting point was 72 to 74 °C.

With `C=C(CS(=O)CCCC)c1ccccc1` (centres undefined), the melting point lay within 42 to 43.5 °C.

The compound `CCOC(=O)C1=C(N)N=C(OCC)C(C(=O)OCC)C1c1cc([N+](=O)[O-])ccc1Cl` (centres undefined) gave a melting point of 136 to 137 °C.

On to `Nc1ccc2ncc(Br)cc2c1`, for which the melting point fell in the range of 151 to 152 °C.

The compound `CCCCCCCCn1c(=O)c2c(Cl)cc(Cl)cc2n(Cc2ccccc2)c1=O` gave a melting point of 82 to 85 °C.

For the compound `CCCc1c(-c2cccnn2)ssc1=S`, the melting point is 77 °C.

In turn, `O=[N+]([O-])c1ccc2nc(Cl)c(Cc3ccccc3)cc2c1` showed a melting point of 159 to 161 °C.

As for `Cc1cc([Si](C)(C)C)c(C)cc1[Si](C)(C)C`, the melting point is 56 to 57.5 °C.

Regarding `O=C(O)c1ccc(SCc2c(O[C@H](Cn3ccnc3)c3ccccc3)ccc3c2CCCC3=O)cc1`, the melting point was 215 °C.

Compound `BrCc1cc2ccccc2cc1CBr` showed a melting point of 147 to 148 °C.

The compound `CCCCNC(=S)N1CCC(c2nc(-c3ccc(-c4ccccc4)cc3)c[nH]2)CC1` displayed a melting point of 102 to 103 °C.

In turn, `Oc1ccc2cc(-c3cnc(-c4cn(Cc5ccccc5)c5ccccc45)o3)ccc2c1` came in with a melting point of 242 to 244 °C.

`Oc1ccc2c(c1)SCCc1c-2n(CCCCCN2CCCCC2)c2ccccc12` showed a melting point of 130 °C.

Compound `O=C(NC1CCN(CCCc2ccccc2)C1)C12CC3CC(CC(C3)C1)C2` (centres undefined) gave a melting point of 118 to 120 °C.
